Structures can show the parent of a compound that is named as a salt.
Legend:
[1] = Polarizing microscope (PLM) image, particle size; assay type: physicochemical; settings: room temperature
Source text: The polarizing microscope data are acquired by an Axio Lab. A1 upright microscope at room temperature.

Solid stability, 1 week = assay type: physicochemical; settings: for Purity (area %): HPLC; for Crystal form change: XRPD
Procedure: The crystal form A of hydrochloride, the crystal form A of fumarate, the crystal form A of benzenesulfonate and the free base crystal form A prepared repeatedly were placed at 25° C./60% RH and 40° C./75% RH for 1 week, and then the physical and chemical stability of the samples were tested by XRPD and HPLC. […] No significant purity decrease or crystal form transformation occurred in any of the other samples after being placed under 2 conditions for 1 week.

[2] = Dynamic solubility in water and three biological vehicles; assay type: physicochemical; settings: for pH: filtrate; for solubility in each system compared with that of the free base crystal form A: water; for Crystal form change: XRPD of solid
Procedure: The dynamic solubility of the crystal form A of hydrochloride, the crystal form A of fumarate, the crystal form A of benzenesulfonate and the free base crystal form A prepared repeatedly was evaluated in water and three biological vehicles. […] After centrifugation of the samples at each time point (0.45 μm PTFE filter head), the filtrate was determined for HPLC concentration and pH, and the centrifuged solid samples were tested for XRPD.

[3] = Hygroscopicity by dynamic vapor sorption (DVS); assay type: physicochemical; settings: for After DVS test Whether the crystal form is changed: 0% RH to 95% RH to 0% RH; for After DVS test Whether the crystal form is changed / Hygroscopicity / Vapor sorption (25° C./80% RH): 25° C.; for Hygroscopicity / Vapor sorption (25° C./80% RH): DVS; for DVS curve vapor sorption: at 0% RH to 80% RH; for Risk evaluation: hygroscopicity evaluation
Procedure: Dynamic vapor sorption (DVS) curves are acquired on a DVS Intrinsic in SMS (Surface Measurement System). The relative humidity at 25° C. is corrected with the deliquescence points of LiCl, Mg(NO3)2 and KCl.
Hygroscopicity of the crystal form A of hydrochloride, the crystal form A of fumarate, the crystal form A of benzenesulfonate and the free base crystal form A prepared repeatedly was evaluated using a dynamic vapor sorption (DVS) instrument. Starting at 0% relative humidity (0% RH), the test acquired the percentage change of mass of the sample when humidity changed (0% RH to 95% RH to 0% RH) at a constant temperature of 25° C.

[4] = Pharmacokinetic assay (crystal form) in mice; assay type: in vivo; settings: male, ICR, mouse, plasma, oral intragastric administration 10 mg/kg
Procedure: In vivo pharmacokinetic assay in mice was performed, wherein the used mice were 9 male ICR mice weighing 20-25 g and fasted overnight. 9 mice were taken and orally intragastrically administered with 10 mg/kg of the compound. […] Blood samples were centrifuged at 8000 rpm for 6 min at 4° C., and plasma was collected and stored at −20° C. The plasma at each time point was taken and added with 3-5 times of acetonitrile solution containing the internal standard for mixing, and the mixed solution was subjected to vortex mixing for 1 min, and centrifuging at 4° C. for 10 min at 13000 rpm. The supernatant was taken and added with 3 times of water for mixing. A proper amount of the mixed solution was taken for LC-MS/MS analysis. The major pharmacokinetic parameters were analyzed using WinNonlin 7.0 software and a non-compartmental model.

[5] = Stability of crystal form on storage for 6 months; assay type: physicochemical; settings: 40° C./75% RH; 25° C./60% RH; 2° C. to 8° C.; polyethylene bag + aluminum foil bag
Source text: (the aluminum foil bag is made of light-proof materials and can be protected from light; and the polyethylene bag and the aluminum foil bag are sealed when being packaged).

[6] = Solid stability evaluation at 60° C. for 24 h; assay type: physicochemical
Procedure: The crystal form A of benzenesulfonate of the compound of formula (I) was used as a starting sample, and 100 polymorph screening tests under different conditions were set. The screening method comprises the following steps: adding an anti-solvent, slowly volatilizing, slowly cooling, suspending and stirring (room temperature and 50° C.), circularly heating and cooling, gas-solid permeation, gas-liquid diffusion, inducing and grinding a high polymer. From the X-ray powder diffraction (XRPD) results of the isolated solid, only one polymorph of benzenesulfonate, i.e., the starting form A, was found. A partial evaluation was completed in the salt form screening stage, so only solid stability evaluation at 60° C. for 24 h was performed.

[7] = listed as crystal form A of hydrochloride
[8] = SGF, 4 h, listed as Benzenesulfonate Crystal form
[9] = SGF, 24 h, listed as Benzenesulfonate Crystal form

C[C@H](Cc1cnn[nH]1)OCC(=O)N1Cc2cnc(NC3Cc4ccccc4C3)nc2C1 [Crystal form A of hydrochloride]
particle size [1]: less than 50 μm | Purity/initial purity (%) (Solid stability, 1 week; 25° C./60% RH): 99.5% | Purity (area %) (Solid stability, 1 week; 25° C./60% RH): 96.68 area % | Crystal form change (Solid stability, 1 week; 25° C./60% RH): No | Purity/initial purity (%) (Solid stability, 1 week; 40° C./75% RH): 79.9% | XRPD crystallinity (Solid stability, 1 week; 40° C./75% RH): decreased | Purity (area %) (Solid stability, 1 week; 40° C./75% RH): 77.67 area % | Crystal form change (Solid stability, 1 week; 40° C./75% RH): No* | pH ([2]; FaSSIF, 1 h): 5.7 | pH ([2]; FaSSIF, 4 h): 5.5 | pH ([2]; FaSSIF, 24 h): 5.2 | pH ([2]; FeSSIF, 1 h): 4.9 | pH ([2]; FeSSIF, 4 h): 4.9 | pH ([2]; FeSSIF, 24 h): 4.9 | pH ([2]; H2O, 1 h): 2.3 | pH ([2]; H2O, 4 h): 2.2 | pH ([2]; H2O, 24 h): 2.3 | pH ([2]; SGF, 1 h): 1.8 | pH ([2]; SGF, 4 h): 1.8 | pH ([2]; SGF, 24 h): 1.9 | solubility in each system compared with that of the free base crystal form A ([2]; SGF, FaSSIF, FeSSIF): significantly improved | After DVS test Whether the crystal form is changed [3]: Yes* | After DVS test Whether the crystal form is changed [3, 7]: changed crystal form | Hygroscopicity [3]: Moderately | Vapor sorption (25° C./80% RH) [3]: 3.85% | Hygroscopicity [3, 7]: had hygroscopicity | DVS curve vapor sorption [3]: less than 3.85% | Risk evaluation [3]: Significantly increased

C[C@H](Cc1cnn[nH]1)OCC(=O)N1Cc2cnc(NC3Cc4ccccc4C3)nc2C1 [Crystal form A of benzenesulfonate]
AUC(0-t) [4]: 7430 ng·h/mL | Cmax [4]: 6600 ng/mL | Tmax [4]: 30 min | half-life [4]: 71.4 min | particle size [1]: less than 50 μm | crystal form after being stored for 6 months [5]: unchanged | stability after being stored for 6 months [5]: excellent stability | Purity/initial purity (%) (Solid stability, 1 week; 25° C./60% RH): 100.0% | Purity (area %) (Solid stability, 1 week; 25° C./60% RH): 99.35 area % | Crystal form change (Solid stability, 1 week; 25° C./60% RH): No | Purity/initial purity (%) (Solid stability, 1 week; 40° C./75% RH): 99.9% | Purity (area %) (Solid stability, 1 week; 40° C./75% RH): 99.20 area % | Crystal form change (Solid stability, 1 week; 40° C./75% RH): No | Crystal form change ([2]; SGF, 1 h): No | Crystal form change [2, 8]: Clear | Crystal form change [2, 9]: Clear | pH ([2]; FaSSIF, 1 h, listed as Benzenesulfonate Crystal form): 6.0 | pH ([2]; FaSSIF, 4 h, listed as Benzenesulfonate Crystal form): 6.0 | pH ([2]; FaSSIF, 24 h, listed as Benzenesulfonate Crystal form): 6.0 | pH ([2]; FeSSIF, 1 h, listed as Benzenesulfonate Crystal form): 5.0 | pH ([2]; FeSSIF, 4 h, listed as Benzenesulfonate Crystal form): 5.0 | pH ([2]; FeSSIF, 24 h, listed as Benzenesulfonate Crystal form): 5.0 | pH ([2]; H2O, 1 h, listed as Benzenesulfonate Crystal form): 2.5 | pH ([2]; H2O, 4 h, listed as Benzenesulfonate Crystal form): 2.5 | pH ([2]; H2O, 24 h, listed as Benzenesulfonate Crystal form): 2.5 | pH ([2]; SGF, 1 h, listed as Benzenesulfonate Crystal form): 1.9 | pH [2, 8]: 1.9 | pH [2, 9]: 1.9 | solubility in each system compared with that of the free base crystal form A ([2]; SGF, FaSSIF, FeSSIF): significantly improved | Purity (area %) [6]: 98.23 area % | Purity/initial purity (%) [6]: 100.0% | Crystal form change ([6]; XRPD): No | After DVS test Whether the crystal form is changed [3]: No | Hygroscopicity [3]: Slightly | Vapor sorption (25° C./80% RH) [3]: 1.45% | DVS curve vapor sorption [3]: less than 1.46% | Risk evaluation [3]: None
